These results are taken from patent publication EP4741391A1, “NMT INHIBITOR, AND PREPARATION METHOD THEREFOR AND USE THEREOF” (Nanjing Synnocare Pharmaceutical Technology Co., Ltd., priority 2023, dated 2025).

One test deals with T1, NMT1 enzyme (Homo sapiens, UniProt P30419).
T1 sequence (P30419 1-496): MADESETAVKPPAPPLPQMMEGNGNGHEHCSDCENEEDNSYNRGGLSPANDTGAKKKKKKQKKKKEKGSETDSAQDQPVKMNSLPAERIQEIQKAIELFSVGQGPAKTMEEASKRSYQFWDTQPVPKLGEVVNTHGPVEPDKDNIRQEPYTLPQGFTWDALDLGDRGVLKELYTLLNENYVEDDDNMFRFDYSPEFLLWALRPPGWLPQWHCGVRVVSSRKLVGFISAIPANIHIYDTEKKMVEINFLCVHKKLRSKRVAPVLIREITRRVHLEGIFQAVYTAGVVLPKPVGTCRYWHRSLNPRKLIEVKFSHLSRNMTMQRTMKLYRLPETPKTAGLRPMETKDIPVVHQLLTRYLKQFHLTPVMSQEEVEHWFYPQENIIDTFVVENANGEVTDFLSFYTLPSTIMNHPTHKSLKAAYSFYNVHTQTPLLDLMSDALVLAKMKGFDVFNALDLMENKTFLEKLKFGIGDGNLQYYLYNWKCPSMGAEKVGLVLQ
Description: Inhibitory activity on NMT1 enzyme catalysis (fluorescence intensity, CPM probe). The settings on record: 6 nM NMT1 enzyme, 1.25 µM myristoyl-CoA, 20 µM HSPP60 SRC peptide, 45 minutes at 25 °C. Format: biochemical. The method, then: This study evaluated the ability of the compounds of the invention to inhibit NMT1 catalytic activity in vitro. The experiment used a FI (Fluorescence Intensity) analysis method, characterizing NMT1 inhibitors under conditions of 1.25 µM myristoyl-CoA (Lithium salt, Sigma, M4414). In this experiment, a synthesized peptide with the sequence H-Gly-Ser-Asn-Lys-Ser-Lys-Pro-Lys-NH2, HSPP60SRC (Nanjing Peptide Industry, NJP23953), was used as the reaction substrate. The final concentration of the NMT1 enzyme was 6 nM, the final concentration of CPM (Reactive thiol fluorescence probe, Invitrogen, D346) was 1 µM, the final concentration of HSPP60 SRC was 20 µM, and the final concentration of DMSO was 0.5%.
Compounds were dissolved in DMSO to obtain 10 mM stock solutions. Dose-response solutions were prepared with a top endpoint compound concentration of 3 mM, followed by three-fold serial dilutions in DMSO, totaling ten data points. Using an ECHO acoustic liquid handler (BECKMAN, ECHO 655 system), 0.05 µL of the diluted compound solutions was transferred to a 384-well assay plate (Corning, CLS4514). Then, 2.5 µL of the NMT1 enzyme working solution was added to the 384-well assay plate, followed by incubation at 25 °C for 10 minutes. Subsequently, 5 µL of the CPM and myristoyl-CoA working solution was added, the plate was centrifuged at 1000 rpm for 1 minute, and then 2.5 µL of the HSPP60 SRC working solution was added to initiate the reaction. The reaction was incubated at 25 °C for 45 minutes. The FI signal ([…]; ex: 405 nm) was detected using an HTS high-throughput screening multifunctional microplate reader (BMG, PHERA star FSX).
The inhibition rate of the compounds on NMT1 enzyme catalytic activity was calculated using the following formula: Inhibition Percentage (%) = 100 * (Mean of DMSO group - Mean of Compound group) / (Mean of DMSO group - Mean of Blank control group). The IC50 curve of the compounds was fitted using the software XLfit 5.5.0 according to the nonlinear regression equation. Table 1 provides the inhibitory activity of the compounds of the invention on NMT1 enzyme catalysis.

In a further test the test system is MV-4-11 cells. In words: Anti-proliferative activity against MV-4-11 cells (three-day cell viability chemiluminescence). Format: cell-based. The settings on record: MV-4-11 human monocytic leukemia cells, three days of exposure. Here is the method:
This study utilized a cell proliferation assay to analyze the cytotoxicity of MV-4-11 human monocytic leukemia cells after three days of exposure to NMT1 inhibitors. The MV-4-11 cell line was purchased from Nanjing Cobuilder Biotechnology Co., Ltd., and cultured in IMDM medium (Viva cell) in an incubator (Thermo) at 37 °C with 5% CO2. In this experiment, NMT1 inhibitors were dissolved in DMSO to obtain 600 µM stock solutions. Dose-response solutions were prepared with a top endpoint compound concentration of 3 µM, followed by three-fold serial dilutions in DMSO, totaling eight data points. The final concentration of DMSO was 0.5%.
MV-4-11 cells were seeded into a white 96-well plate, 80 µL of cell suspension per well, containing 6000 MV-4-11 cells. The cell plate was placed in the CO2 incubator for overnight culture. Then, 20 µL of NMT1 inhibitor solutions at different concentrations were added to the wells. The 96-well plate was placed back into the incubator for three days. Another cell plate was prepared, and the signal was read on the day of drug addition to serve as the maximum value (Max value in the equation below) for data analysis. To this cell plate, 25 µL of cell viability chemiluminescence detection reagent was added per well, followed by incubation at room temperature for 10 minutes to stabilize the luminescence signal. A multi-label analyzer was used for reading.
The raw data were converted into inhibition rates using the equation (Sample - Min) / (Max - Min) * 100%. The IC50 values were then determined by fitting a four-parameter curve (using the "log(inhibitor) vs. response - Variable slope" model in GraphPad Prism). Min: wells treated with 0.5% DMSO; Max: Day 0 wells. Table 1 provides the inhibitory activity of the compounds of the invention on MV-4-11 cell proliferation. Table 1: Compound Inhibitory Activity against NMT1 Enzyme (IC50) and Anti-proliferative Activity against MV-4-11 Cells (IC50)

For the compound `Cc1c(CCOc2cc(Cl)ccc2-c2ccn3ncc(CN(C)C)c3c2)c(CO)nn1C` [Compound 12, (4-{2-[(5-chloro-2-{3-[(dimethylamino)methyl]-pyrazolo [1,5-a]pyridin-5-yl}phenyl)oxy]ethyl}-1,5-dimethylpyrazol-3-yl)methanol], the IC50 amounted to 3.67 nM against NMT1 enzyme and 31.7 nM with MV-4-11 cells (Homo sapiens, MV4-11, 72 h).

As to `Cc1c(CCOc2cc(Cl)ccc2-c2ccn3ncc(CN(C)C)c3c2)c(C#N)nn1C` [Compound 13, 4-{2-[(5-chloro-2-{3-[(dimethylamino)methyl]pyrazolo[1,5-a]pyridin-5-yl}phenyl)oxy]ethyl}-1,5-dimethylpyrazole-3-carbonitrile], the IC50 amounted to 2.79 nM against NMT1 enzyme and 23.2 nM in the test on MV-4-11 cells (Homo sapiens, MV4-11, 72 h).

Consider `Cc1nn(C)c(C)c1CCOc1cc(Cl)ccc1-c1ccn2ncc(CN(C)C)c2c1` [Compound 14, 5-(4-chloro-2-{[2-(1,3,5-trimethylpyrazol-4-yl)ethyl]oxy}phenyl)-3-[(dimethylamino)methyl]pyrazolo[1,5-a]pyridine], for which the IC50 against NMT1 enzyme amounted to 1.98 nM; with MV-4-11 cells (Homo sapiens, MV4-11, 72 h) it was 18.4 nM.

For `CCc1nn(C)c(C)c1CCOc1cc(Cl)ccc1-c1ccn2ncc(CN(C)C)c2c1` [Compound 15, 5-(4-chloro-2-{[2-(3-ethyl-1,5-dimethylpyrazol-4-yl)ethyl]oxy}phenyl)-3-[(dimethylamino)methyl]pyrazolo[1,5-a]pyridine], the IC50 against NMT1 enzyme is 2.34 nM; with MV-4-11 cells (Homo sapiens, MV4-11, 72 h) it was 20.7 nM.

Consider `Cc1c(CCOc2cc(Cl)ccc2-c2ccn3ncc(CN(C)C)c3c2)c(C(N)=O)nn1C` [Compound 16, 4-{2-[(5-chloro-2-{3-[(dimethylamino)methyl]pyrazolo[1,5-a]pyridin-5-yl}phenyl)oxy]ethyl}-1,5-dimethylpyrazole-3-carboxamide], for which the IC50 against NMT1 enzyme came to 5.32 nM; in the test on MV-4-11 cells (Homo sapiens, MV4-11, 72 h), 41.8 nM.

In the case of `CNC(=O)c1nn(C)c(C)c1CCOc1cc(Cl)ccc1-c1ccn2ncc(CN(C)C)c2c1` [Compound 17, 4-{2-[(5-chloro-2-{3-[(dimethylamino)methyl]pyrazolo[1,5-a]pyridin-5-yl}phenyl)oxy]ethyl}-1,5,N-trimethylp yrazole-3-carboxamide], the IC50 is 2.38 nM against NMT1 enzyme and 25.8 nM in the test on MV-4-11 cells (Homo sapiens, MV4-11, 72 h).

As to `CCNC(=O)c1nn(C)c(C)c1CCOc1cc(Cl)ccc1-c1ccn2ncc(CN(C)C)c2c1` [Compound 18, 4-{2-[(5-chloro-2-{3-[(dimethylamino)methyl]pyrazolo[1,5-a]pyridin-5-yl}phenyl)oxy]ethyl}-N-ethyl-1,5-dime thylpyrazole-3-carboxamide], the 50% inhibitory concentration (IC50) is 2.97 nM against NMT1 enzyme and 30.2 nM in the test with MV-4-11 cells (Homo sapiens, MV4-11, 72 h).

For `CCN(C)C(=O)c1nn(C)c(C)c1CCOc1cc(Cl)ccc1-c1ccn2ncc(CN(C)C)c2c1` [Compound 19, 4-{2-[(5-chloro-2-{3-[(dimethylamino)methyl]pyrazolo[1,5-a]pyridin-5-yl}phenyl)oxy]ethyl}-N-ethyl-1,5,N-tri methylpyrazole-3-carboxamide], the IC50 is 3.21 nM against NMT1 enzyme and 29.8 nM in the test with MV-4-11 cells (Homo sapiens, MV4-11, 72 h).

Take `CCN(CC)C(=O)c1nn(C)c(C)c1CCOc1cc(Cl)ccc1-c1ccn2ncc(CN(C)C)c2c1` [Compound 20, 4-{2-[(5-chloro-2-{3-[(dimethylamino)methyl]pyrazolo[1,5-a]pyridin-5-yl}phenyl)oxy]ethyl}-N,N-diethyl-1,5-dimethylpyrazole-3-carboxamide]: the half-inhibitory concentration (IC50) stood at 2.76 nM at NMT1 enzyme and 23.5 nM in the test on MV-4-11 cells (Homo sapiens, MV4-11, 72 h).

Turning to `CNCc1cnn2ccc(-c3ccc(F)c(F)c3OCCc3c(C(=O)N(C)C)nn(C)c3C)cc12` [Compound 21, 4-{2-[(2,3-difluoro-6-{3-[(methylamino)methyl]pyrazolo[1,5-a]pyridin-5-y 1}phenyl)oxy]ethyl}-1,5,N,N-tetramet hylpyrazole-3-carboxamide], the IC50 at NMT1 enzyme was 1.61 nM; with MV-4-11 cells (Homo sapiens, MV4-11, 72 h) it was below 10 nM; with MV-4-11 cells, 5.91 nM.

Consider `CNCc1cnn2ccc(-c3ccc(F)c(F)c3OCCc3c(C(=O)NC)nn(C)c3C)cc12` [Compound 22, 4-{2-[(2,3-difluoro-6-{3-[(methylamino)methyl]pyrazolo[1,5-a]pyridin-5-yl}phenyl)oxy]ethyl}-1,5,N-trimethylp yrazole-3-carboxamide], for which the concentration for half-maximal inhibition (IC50) was 1.89 nM against NMT1 enzyme and 10.6 nM with MV-4-11 cells (Homo sapiens, MV4-11, 72 h).

As for `CNCc1cnn2ccc(-c3ccc(F)c(F)c3OCCc3c(C)nn(C)c3C)cc12` [Compound 23, 5-(3,4-difluoro-2-{[2-(1,3,5-trimethylpyrazol-4-yl)ethyl]oxy}phenyl)-3-[(methylamino)methyl]pyrazolo[1,5-a]py ridine], the IC50 is 2.57 nM against NMT1 enzyme and 19.4 nM in the test with MV-4-11 cells (Homo sapiens, MV4-11, 72 h).

For the compound `CCc1nn(C)c(C)c1CCOc1c(-c2ccn3ncc(CNC)c3c2)ccc(F)c1F` [Compound 24, 5-(2-{[2-(3-ethyl-1,5-dimethylpyrazol-4-yl)ethyl]oxy}-3,4-difluorophenyl)-3-[(methylamino)methyl]pyrazolo[1,5-a]pyridine], the IC50 against NMT1 enzyme was 2.81 nM; in the test on MV-4-11 cells (Homo sapiens, MV4-11, 72 h), 24.9 nM.

Turning to `CNCc1cnn2ccc(-c3ccc(F)c(F)c3OCCc3c(C(C)C)nn(C)c3C)cc12` [Compound 25, 5-[2-({2-[1,5-dimethyl-3-(prop-2-yl)pyrazol-4-yl]ethyl}oxy)-3,4-difluorophenyl]-3-[(methylamino)methyl]pyrazo lo[1,5-a]pyridine], the IC50 was determined as 3.26 nM on NMT1 enzyme and 25.8 nM in the test on MV-4-11 cells (Homo sapiens, MV4-11, 72 h).

With `CNCc1cnn2ccc(-c3ccc(F)c(F)c3OCCc3c(CF)nn(C)c3C)cc12` [Compound 26, 5-[3,4-difluoro-2-({2-[3-(fluoromethyl)-1,5-dimethylpyrazol-4-yl]ethyl}oxy)phenyl]-3-[(methylamino)methyl]p yrazolo[1,5-a]pyridine], the IC50 stood at 2.48 nM against NMT1 enzyme and 12.3 nM in the test on MV-4-11 cells (Homo sapiens, MV4-11, 72 h).

In the case of `CNCc1cnn2ccc(-c3ccc(F)c(F)c3OCCc3c(C#N)nn(C)c3C)cc12` [Compound 27, 4-{2-[(2,3-difluoro-6-{3-[(methylamino)methyl]pyrazolo[1,5-a]pyridin-5-yl}phenyl)oxy]ethyl}-1,5-dimethylpyr azole-3-carbonitrile], the IC50 on NMT1 enzyme was 1.82 nM; in the test on MV-4-11 cells (Homo sapiens, MV4-11, 72 h) it was below 10 nM; with MV-4-11 cells, 5.56 nM.

Regarding `CNCc1cnn2ccc(-c3ccc(F)c(F)c3OCCc3c(CC#N)nn(C)c3C)cc12` [Compound 28, (4-{2-[(2,3-difluoro-6-{3-[(methylam ino)methyl]pyrazolo[1,5-a]pyridin-5-yl}phenyl)oxy]ethyl}-1,5-dimethylpyrazol-3-yl)acetonitrile], the IC50 on NMT1 enzyme stood at 1.95 nM; in the test on MV-4-11 cells (Homo sapiens, MV4-11, 72 h), 10.7 nM.

A word on the IC50: it is the concentration needed to halve the response being measured.
